Data reported in patent US6358885B1, “Substituted phenylheterocyclic herbicides” (Mississippi State University, priority 1992, dated 2002).

What was measured:
Assay in all cases: Test B preemergence/postemergence greenhouse plant response rating 0 to 10
Details in all cases: 0 to 10 scale
[1] = test system: barley; type: in vivo, Hordeum vulgare
In short: (§1)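 Test chemicals were sprayed onto freshly planted seed and, concurrently, onto young plants between the one and four leaf stage. After a twelve- to sixteen-day greenhouse period, each species was visually compared with untreated controls.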

[2] = test system: barnyardgrass; type: in vivo, Echinochloa crus-galli
In short: as §1

[3] = test system: bedstraw; type: in vivo, Galium aparine
In short: as §1

[4] = test system: blackgrass; type: in vivo, Alopecurus myosuroides
In short: as §1

[5] = test system: cheatgrass; type: in vivo, Bromus secalinus
In short: as §1

[6] = test system: chickweed; type: in vivo, Stellaria media
In short: as §1

[7] = test system: cocklebur; type: in vivo, Xanthium pensylvanicum
In short: as §1

[8] = test system: corn; type: in vivo, Zea mays
In short: as §1

[9] = test system: cotton; type: in vivo, Gossypium hirsutum
In short: as §1

[10] = test system: crabgrass; type: in vivo, Digitaria spp.
In short: as §1

[11] = test system: giant foxtail; type: in vivo, Setaria faberii
In short: as §1

[12] = test system: lambsquarters; type: in vivo, Chenopodium album
In short: as §1

[13] = test system: morningglory; type: in vivo, Ipomoea hederacea
In short: as §1

[14] = test system: rape; type: in vivo, Brassica napus
In short: as §1

[15] = test system: rice; type: in vivo, Oryza sativa
In short: as §1

[16] = test system: sorghum; type: in vivo, Sorghum bicolor
In short: as §1

[17] = test system: soybean; type: in vivo, Glycine max
In short: as §1

[18] = test system: sugar beet; type: in vivo, Beta vulgaris
In short: as §1

[19] = test system: velvetleaf; type: in vivo, Abutilon theophrasti
In short: as §1

[20] = test system: wheat; type: in vivo, Triticum aestivum
In short: as §1

[21] = test system: wild buckwheat; type: in vivo, Polygonum convolvulus
In short: as §1

[22] = test system: wild oat; type: in vivo, Avena fatua
In short: as §1

[23] = test system: purple nutsedge; type: in vivo, Cyperus rotundus
In short: as §1

SMILES: C=CCOc1cc(-c2nn3c(c2Br)CCCC3)c(F)cc1Cl [Compound 37]
- Plant response rating, Barley ([1]; POSTEMERGENCE, Rate 50 g/ha): 4
- Plant response rating, Barley ([1]; POSTEMERGENCE, Rate 200 g/ha): 6
- Plant response rating, Barley ([1]; PREEMERGENCE, Rate 50 g/ha): 0
- Plant response rating, Barley ([1]; Rate 200 g/ha, PREEMERGENCE): 0
- Plant response rating, Barnyardgrass ([2]; POSTEMERGENCE, Rate 50 g/ha): 5
- Plant response rating, Barnyardgrass ([2]; POSTEMERGENCE, Rate 200 g/ha): 7
- Plant response rating, Barnyardgrass ([2]; PREEMERGENCE, Rate 50 g/ha): 0
- Plant response rating, Barnyardgrass ([2]; Rate 200 g/ha, PREEMERGENCE): 4
- Plant response rating, Bedstraw ([3]; POSTEMERGENCE, Rate 50 g/ha): 7
- Plant response rating, Bedstraw ([3]; POSTEMERGENCE, Rate 200 g/ha): 10
- Plant response rating, Bedstraw ([3]; Rate 200 g/ha, PREEMERGENCE): 8
- Plant response rating, Blackgrass ([4]; POSTEMERGENCE, Rate 50 g/ha): 4
- Plant response rating, Blackgrass ([4]; POSTEMERGENCE, Rate 200 g/ha): 7
- Plant response rating, Blackgrass ([4]; PREEMERGENCE, Rate 50 g/ha): 0
- Plant response rating, Blackgrass ([4]; Rate 200 g/ha, PREEMERGENCE): 6
- Plant response rating, Cheatgrass ([5]; POSTEMERGENCE, Rate 50 g/ha): 4
- Plant response rating, Cheatgrass ([5]; POSTEMERGENCE, Rate 200 g/ha): 7
- Plant response rating, Cheatgrass ([5]; PREEMERGENCE, Rate 50 g/ha): 5
- Plant response rating, Cheatgrass ([5]; Rate 200 g/ha, PREEMERGENCE): 6
- Plant response rating, Chickweed ([6]; POSTEMERGENCE, Rate 50 g/ha): 5
- Plant response rating, Chickweed ([6]; POSTEMERGENCE, Rate 200 g/ha): 10
- Plant response rating, Chickweed ([6]; Rate 200 g/ha, PREEMERGENCE): 9
- Plant response rating, Cocklebur ([7]; POSTEMERGENCE, Rate 50 g/ha): 7
- Plant response rating, Cocklebur ([7]; POSTEMERGENCE, Rate 200 g/ha): 10
- Plant response rating, Cocklebur ([7]; PREEMERGENCE, Rate 50 g/ha): 0
- Plant response rating, Cocklebur ([7]; Rate 200 g/ha, PREEMERGENCE): 0
- Plant response rating, Corn ([8]; POSTEMERGENCE, Rate 50 g/ha): 6
- Plant response rating, Corn ([8]; POSTEMERGENCE, Rate 200 g/ha): 8
- Plant response rating, Corn ([8]; PREEMERGENCE, Rate 50 g/ha): 0
- Plant response rating, Corn ([8]; Rate 200 g/ha, PREEMERGENCE): 3
- Plant response rating, Cotton ([9]; POSTEMERGENCE, Rate 50 g/ha): 10
- Plant response rating, Cotton ([9]; POSTEMERGENCE, Rate 200 g/ha): 10
- Plant response rating, Cotton ([9]; PREEMERGENCE, Rate 50 g/ha): 0
- Plant response rating, Cotton ([9]; Rate 200 g/ha, PREEMERGENCE): 7
- Plant response rating, Crabgrass ([10]; POSTEMERGENCE, Rate 50 g/ha): 4
- Plant response rating, Crabgrass ([10]; POSTEMERGENCE, Rate 200 g/ha): 5
- Plant response rating, Crabgrass ([10]; PREEMERGENCE, Rate 50 g/ha): 0
- Plant response rating, Crabgrass ([10]; Rate 200 g/ha, PREEMERGENCE): 7
- Plant response rating, Giant foxtail ([11]; POSTEMERGENCE, Rate 50 g/ha): 5
- Plant response rating, Giant foxtail ([11]; PREEMERGENCE, Rate 50 g/ha): 2
- Plant response rating, Giant foxtail ([11]; Rate 200 g/ha, POSTEMERGENCE): 6
- Plant response rating, Giant foxtail ([11]; Rate 200 g/ha, PREEMERGENCE): 5
- Plant response rating, Lambsquarter ([12]; POSTEMERGENCE, Rate 50 g/ha): 9
- Plant response rating, Lambsquarter ([12]; PREEMERGENCE, Rate 50 g/ha): 10
- Plant response rating, Lambsquarter ([12]; Rate 200 g/ha, POSTEMERGENCE): 10
- Plant response rating, Lambsquarter ([12]; Rate 200 g/ha, PREEMERGENCE): 10
- Plant response rating, Morningglory ([13]; POSTEMERGENCE, Rate 50 g/ha): 7
- Plant response rating, Morningglory ([13]; PREEMERGENCE, Rate 50 g/ha): 0
- Plant response rating, Morningglory ([13]; Rate 200 g/ha, POSTEMERGENCE): 8
- Plant response rating, Morningglory ([13]; Rate 200 g/ha, PREEMERGENCE): 1
- Plant response rating, Rape ([14]; POSTEMERGENCE, Rate 50 g/ha): 9
- Plant response rating, Rape ([14]; Rate 200 g/ha, POSTEMERGENCE): 10
- Plant response rating, Rape ([14]; Rate 200 g/ha, PREEMERGENCE): 6
- Plant response rating, Rice ([15]; POSTEMERGENCE, Rate 50 g/ha): 5
- Plant response rating, Rice ([15]; PREEMERGENCE, Rate 50 g/ha): 0
- Plant response rating, Rice ([15]; Rate 200 g/ha, POSTEMERGENCE): 6
- Plant response rating, Rice ([15]; Rate 200 g/ha, PREEMERGENCE): 0
- Plant response rating, Sorghum ([16]; POSTEMERGENCE, Rate 50 g/ha): 5
- Plant response rating, Sorghum ([16]; PREEMERGENCE, Rate 50 g/ha): 0
- Plant response rating, Sorghum ([16]; Rate 200 g/ha, POSTEMERGENCE): 6
- Plant response rating, Sorghum ([16]; Rate 200 g/ha, PREEMERGENCE): 1
- Plant response rating, Soybean ([17]; POSTEMERGENCE, Rate 50 g/ha): 5
- Plant response rating, Soybean ([17]; PREEMERGENCE, Rate 50 g/ha): 0
- Plant response rating, Soybean ([17]; Rate 200 g/ha, POSTEMERGENCE): 6
- Plant response rating, Soybean ([17]; Rate 200 g/ha, PREEMERGENCE): 4
- Plant response rating, Sugar beet ([18]; POSTEMERGENCE, Rate 50 g/ha): 10
- Plant response rating, Sugar beet ([18]; PREEMERGENCE, Rate 50 g/ha): 9
- Plant response rating, Sugar beet ([18]; Rate 200 g/ha, POSTEMERGENCE): 10
- Plant response rating, Sugar beet ([18]; Rate 200 g/ha, PREEMERGENCE): 9
- Plant response rating, Velvetleaf ([19]; POSTEMERGENCE, Rate 50 g/ha): 10
- Plant response rating, Velvetleaf ([19]; PREEMERGENCE, Rate 50 g/ha): 1
- Plant response rating, Velvetleaf ([19]; Rate 200 g/ha, POSTEMERGENCE): 10
- Plant response rating, Velvetleaf ([19]; Rate 200 g/ha, PREEMERGENCE): 9
- Plant response rating, Wheat ([20]; POSTEMERGENCE, Rate 50 g/ha): 4
- Plant response rating, Wheat ([20]; PREEMERGENCE, Rate 50 g/ha): 0
- Plant response rating, Wheat ([20]; Rate 200 g/ha, POSTEMERGENCE): 5
- Plant response rating, Wheat ([20]; Rate 200 g/ha, PREEMERGENCE): 3
- Plant response rating, Wild buckwheat ([21]; POSTEMERGENCE, Rate 50 g/ha): 9
- Plant response rating, Wild buckwheat ([21]; PREEMERGENCE, Rate 50 g/ha): 9
- Plant response rating, Wild buckwheat ([21]; Rate 200 g/ha, POSTEMERGENCE): 10
- Plant response rating, Wild buckwheat ([21]; Rate 200 g/ha, PREEMERGENCE): 10
- Plant response rating, Wild oat ([22]; POSTEMERGENCE, Rate 50 g/ha): 4
- Plant response rating, Wild oat ([22]; PREEMERGENCE, Rate 50 g/ha): 2
- Plant response rating, Wild oat ([22]; Rate 200 g/ha, POSTEMERGENCE): 6
- Plant response rating, Nutsedge ([23]; POSTEMERGENCE, Rate 50 g/ha): 2
- Plant response rating, Nutsedge ([23]; PREEMERGENCE, Rate 50 g/ha): 0
- Plant response rating, Nutsedge ([23]; Rate 200 g/ha, POSTEMERGENCE): 4
- Plant response rating, Nutsedge ([23]; Rate 200 g/ha, PREEMERGENCE): 0
